By solubility is commonly meant the dissolved amount per volume that the medium holds.

The text below walks through data of patent US20150203474A1, “SOLID FORMS COMPRISING INHIBITORS OF HCV NS5A, COMPOSITIONS THEREOF, AND USES THEREWITH” (PRESIDIO PHARMACEUTICALS ,INC., priority 2012, published 2015).

Converted amounts (≈) assume the structure as drawn. Where two headings read alike, the source gives them in different places. Some results are limits rather than exact numbers.

This data set in a line: Solubility of Form I and free base compound 4-3 (visual and HPLC assay of filtrate). Format: physicochemical. Particulars: for solubility at 24 h: thermodynamic from solid; for solubility at 24 h / HPLC Solubility / Visual Solubility (observation in words): target conc. 2.0 mg/mL; for pH (Filtrated): filtrate of solubility sample. On the procedure: Solubility of Form I as well as the free base compound 4-3 was tested. Solubility was measured by placing a small quantity of the compound to be analyzed in a glass vial, capping and rotating the vial overnight at ambient conditions (24 hours). Target concentration was 2.0 mg/mL. The samples were filtrated with 0.45-μm filters. The subsequent filtrate was collected for HPLC assay. HPLC conditions are shown in Table 10 in Appendix A. Solubility for Form I is shown in Table 11 and for the free base compound 4-3 is shown in Table 12 in Appendix A. [table]

Turning to `CC[C@H](C)[C@H](NC(=O)OC)C(=O)N1CCC[C@H]1c1nc2ccc(-c3ccc4cc(-c5cnc([C@@H]6CCCN6C(=O)[C@@H](NC(=O)OC)[C@@H](C)OC)[nH]5)ccc4c3)cc2[nH]1` [Form I of Compound II], the solubility at 24 h (0.1N HCl, simulated gastric fluid, 0.1N HCl, 24 hours ambient, 0.45-μm filtrate, read-out: HPLC Solubility) is 2070 µg/mL (≈ 2610 µM); the solubility at 24 h (0.1N HCl, simulated gastric fluid, 0.1N HCl, read-out: Visual Solubility) is above 2000 µg/mL; the solubility at 24 h (pH 2 medium, pH 2, simulated gastric fluid, pH 2 medium, 24 hours ambient, 0.45-μm filtrate, read-out: HPLC Solubility) is 2050 µg/mL (≈ 2590 µM); the solubility at 24 h (pH 2 medium, pH 2, simulated gastric fluid, pH 2 medium, read-out: Visual Solubility) is above 2000 µg/mL; the solubility at 24 h (pH 3 medium, pH 3, aqueous buffer, pH 3 medium, 24 hours ambient, 0.45-μm filtrate, read-out: HPLC Solubility) was determined as 2030 µg/mL (≈ 2560 µM); the solubility at 24 h (pH 3 medium, pH 3, aqueous buffer, pH 3 medium, read-out: Visual Solubility) is above 2000 µg/mL. In addition, the solubility at 24 h (water, Water, read-out: Visual Solubility) is above 2000 µg/mL. Also, the “pH (Filtrated)” value turned out to be 1.00 (0.1N HCl, listed as Form I); 3.45 (Water, listed as Form I); 2.00 (pH 2 medium, listed as Form I); 2.96 (pH 3 medium, listed as Form I); 3.55 (pH 4 medium, listed as Form I); 3.63 (pH 5 medium, listed as Form I). In addition, the “pH (Filtrated)” value runs as follows: (pH 6 medium, listed as Form I) 5.44; (pH 7 medium, listed as Form I) 6.86; (pH 8 medium, listed as Form I) 7.58. Besides, the “HPLC Solubility” value came out at 2036 µg/mL (Water, 24 hours ambient, 0.45-μm filtrate, listed as Form I); 1857 µg/mL (pH 4 medium, 24 hours ambient, 0.45-μm filtrate, listed as Form I); 1106 µg/mL (pH 5 medium, 24 hours ambient, 0.45-μm filtrate, listed as Form I). For the same molecule, the “Visual Solubility (observation in words)” value reads like this: (pH 4 medium, listed as Form I) “A few”; (pH 5 medium) “Turbid +”; (pH 6 medium, listed as Form I) “Many”; (pH 7 medium, listed as Form I) “Many”; (pH 8 medium, listed as Form I) “Many”.
